We go through 38 compounds from patent US6150385A, “1,3,4-thiadiazoles useful for the treatment of CMV infections” (Pharmacia & Upjohn Company, priority 1999, dated 2000).

The target of the experiment is T1, HCMV polymerase (Human cytomegalovirus, UniProt P08546).
T1 construct: made in house; host or cells: SF-9 insect cells infected with recombinant baculovirus
T1 sequence (P08546 whole entry): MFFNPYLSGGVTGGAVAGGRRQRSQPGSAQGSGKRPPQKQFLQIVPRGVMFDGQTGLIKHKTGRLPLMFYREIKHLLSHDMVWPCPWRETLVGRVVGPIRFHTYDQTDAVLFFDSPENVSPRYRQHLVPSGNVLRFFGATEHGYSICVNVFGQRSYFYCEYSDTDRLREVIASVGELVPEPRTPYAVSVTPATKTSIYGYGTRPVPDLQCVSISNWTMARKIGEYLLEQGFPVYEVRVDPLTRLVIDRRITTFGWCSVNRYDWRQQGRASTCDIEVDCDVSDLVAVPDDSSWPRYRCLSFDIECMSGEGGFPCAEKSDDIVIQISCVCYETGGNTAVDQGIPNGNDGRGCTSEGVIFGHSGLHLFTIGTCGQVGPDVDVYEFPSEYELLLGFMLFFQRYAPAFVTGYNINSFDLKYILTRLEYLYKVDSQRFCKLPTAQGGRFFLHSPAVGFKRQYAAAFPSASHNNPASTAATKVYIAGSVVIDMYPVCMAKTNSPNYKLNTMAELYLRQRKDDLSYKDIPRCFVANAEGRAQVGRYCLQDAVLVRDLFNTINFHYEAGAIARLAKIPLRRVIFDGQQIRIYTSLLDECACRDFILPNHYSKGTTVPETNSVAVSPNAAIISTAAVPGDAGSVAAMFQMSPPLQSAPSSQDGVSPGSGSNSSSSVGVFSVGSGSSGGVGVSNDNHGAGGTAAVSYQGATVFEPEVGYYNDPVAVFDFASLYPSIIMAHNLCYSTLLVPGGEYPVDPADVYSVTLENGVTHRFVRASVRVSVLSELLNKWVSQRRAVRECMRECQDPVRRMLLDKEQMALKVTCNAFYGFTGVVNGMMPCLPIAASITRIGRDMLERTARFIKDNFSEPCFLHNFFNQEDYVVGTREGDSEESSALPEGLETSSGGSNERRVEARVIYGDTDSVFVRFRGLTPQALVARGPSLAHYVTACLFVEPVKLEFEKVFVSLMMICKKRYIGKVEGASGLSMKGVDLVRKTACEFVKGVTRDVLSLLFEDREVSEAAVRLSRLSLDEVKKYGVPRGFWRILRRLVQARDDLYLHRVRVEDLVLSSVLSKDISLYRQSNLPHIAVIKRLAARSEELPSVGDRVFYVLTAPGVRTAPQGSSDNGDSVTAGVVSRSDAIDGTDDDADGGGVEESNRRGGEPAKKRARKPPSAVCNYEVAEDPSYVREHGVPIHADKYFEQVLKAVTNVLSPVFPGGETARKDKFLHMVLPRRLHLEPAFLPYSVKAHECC
The experiment can be described thus: HCMV polymerase assay (scintillation proximity assay). The note with it: percentage of inhibition at 25 μM concentration in CMV polymerase assay. It counts as biochemical. The method, boiled down:
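Values are percent inhibition at 25 μM, measured by scintillation proximity after capture of biotinylated poly(dA)-oligo(dT) (6 nM) extended with 90 nM 3H-dTTP. Recombinant SF-9-derived enzyme reacted 30 min at 25 or 37 °C in HEPES pH 7.5/KCl/MgCl2/BSA buffer, ±2 mM CHAPS, before EDTA termination.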
In general terms: Scintillation proximity formats need no separation of bound from free tracer.
Consider `O=C(CCCCCl)Nc1nnc(NCCc2ccccc2)s1` [compound 354, 5-chloro-N-[5-(phenethylamino)-1,3,4-thiadiazol-2-yl]pentanamide], for which the inhibition (usually the share of the control response that was lost under treatment) at 25 µM stood at 29.9%.

Compound `O=C(Nc1nnc(NC2CCc3ccccc32)s1)c1cccc([N+](=O)[O-])c1` (centres unmarked) [compound 355, N-[5-(2,3-dihydro-1H-inden-1-ylamino)-1,3,4-thiadiazol-2-yl]-3-nitrobenzamide] gave an inhibition at 25 µM of 29.8%. Turning to `Cc1ccc(C(=O)Nc2nnc(NCCCCc3ccccc3)s2)cc1` [compound 356, 4-methyl-N-{5-[(4-phenylbutyl)amino]-1,3,4-thiadiazol-2-yl}benzamide], testing at 25 µM gave an inhibition of 29.6%.

In the case of `O=C(/C=C/c1ccccc1Cl)Nc1nnc(NCCCCc2ccccc2)s1` [compound 357, (E)-3-(2-chlorophenyl)-N-{5-[(4-phenylbutyl)amino]-1,3,4-thiadiazol-2-yl}-2-propenamide], the inhibition at 25 µM came to 29.4%.

`CC(C)c1cc(C(C)C)c(C(=O)Nc2nnc(NCc3ccc4c(c3)OCO4)s2)c(C(C)C)c1` [compound 358, N-{5-[(1,3-benzodioxol-5-ylmethyl)amino]-1,3,4-thiadiazol-2-yl}-2,4,6-triisopropylbenzamide] came in with an inhibition at 25 µM of 29.3%. On the same count and under the same terms, in the case of `Cc1ccc(C(=O)Nc2nnc(NCCc3ccccc3)s2)cc1` [compound 359, 4-methyl-N-[5-(phenethylamino)-1,3,4-thiadiazol-2-yl]benzamide] it was 29.1%. On to `O=C(/C=C/c1ccccc1)Nc1nnc(NCC2CCCCC2)s1` [compound 360, (E)-N-{5-[(cyclohexylmethyl)amino]-1,3,4-thiadiazol-2-yl}-3-phenyl-2-propenamide], for which the inhibition at 25 µM stood at 29%. Same read-out and setting: in the case of `O=C(Nc1nnc(NCc2ccc(F)cc2)s1)c1cc2ccccc2s1` [compound 361, N-{5-[(4-fluorobenzyl)amino]-1,3,4-thiadiazol-2-yl}-1-benzothiophene-2-carboxamide] it was 28.8%; in that of `O=C(Nc1nnc(NCc2cccc3ccccc23)s1)c1cc(F)cc(F)c1` [compound 362, 3,5-difluoro-N-{5-[(1-naphthylmethyl)amino]-1,3,4-thiadiazol-2-yl}benzamide], 28.8%; in that of `O=C(Nc1nnc(NCc2cccc3ccccc23)s1)c1ccc(F)cc1F` [compound 363, 2,4-difluoro-N-{5-[(1-naphthylmethyl)amino]-1,3,4-thiadiazol-2-yl}benzamide], 28.8%. On to `N#Cc1ccc(C(=O)Nc2nnc(NCC3CCCCC3)s2)cc1` [compound 364, 4-cyano-N-{5-[(cyclohexylmethyl)amino]-1,3,4-thiadiazol-2-yl}benzamide], for which 25 µM produced 28.7% inhibition.

Regarding `N#Cc1ccc(C(=O)Nc2nnc(NCc3cccs3)s2)cc1` [compound 365, 4-cyano-N-{5-[(2-thienylmethyl)amino]-1,3,4-thiadiazol-2-yl}benzamide], at 25 µM the inhibition was 28.7%.

`COc1ccccc1C(=O)Nc1nnc(NCCc2ccc(S(N)(=O)=O)cc2)s1` [compound 366, N-(5-{[4-(aminosulfonyl)phenethyl]amino}-1,3,4-thiadiazol-2-yl)-2-methoxybenzamide] showed an inhibition at 25 µM of 28.6%. The same measure, in the same setting: in the case of `O=C(Nc1nnc(NC2CCN(Cc3ccccc3)CC2)s1)c1ccc(I)cc1` [compound 367, N-{5-[(1-benzyl-4-piperidinyl)amino]-1,3,4-thiadiazol-2-yl}-4-iodobenzamide] it was 28.6%; in that of `CCOC(=O)N1CCC(Nc2nnc(NC(=O)c3cc4ccccc4s3)s2)CC1` [compound 368, ethyl 4-({5-[(1-benzothiophen-2-ylcarbonyl)amino]-1,3,4-thiadiazol-2-yl}amino)tetrahydro-1(2H)-pyridinecarboxylate], 28.5%; in that of `O=C(Nc1nnc(NC2CCCCCC2)s1)c1c(Cl)cccc1Cl` [compound 369, 2,6-dichloro-N-[5-(cycloheptylamino)-1,3,4-thiadiazol-2-yl]benzamide], 28.3%. Regarding `O=C(Nc1nnc(NCCN2CCCC2)s1)c1c(Cl)cccc1Cl` [compound 370, 2,6-dichloro-N-(5-{[2-(1-pyrrolidinyl)ethyl]amino}-1,3,4-thiadiazol-2-yl)benzamide], at 25 µM the inhibition was 28.3%. Regarding `O=C(Nc1nnc(NCCCN2CCCC2=O)s1)c1ccc(S(=O)(=O)F)cc1` [compound 371, 4-{[(5-{[3-(2-oxo-1-pyrrolidinyl)propyl]amino}-1,3,4-thiadiazol-2-yl)amino]carbonyl}benzenesulfonyl fluoride], the “% Inhib” value is reported as 28.1%. `O=C(Nc1nnc(NCc2ccc3c(c2)OCO3)s1)c1cc(F)cc(F)c1` [compound 372, N-{5-[(1,3-benzodioxol-5-ylmethyl)amino]-1,3,4-thiadiazol-2-yl}-3,5-difluorobenzamide] gave an inhibition at 25 µM of 28.1%. Compound `O=C(Nc1nnc(NCCCCc2ccccc2)s1)c1cc(F)cc(F)c1` [compound 373, 3,5-difluoro-N-{5-[(4-phenylbutyl)amino]-1,3,4-thiadiazol-2-yl}benzamide] had an inhibition at 25 µM of 28.1%.

In turn, `O=C(/C=C/c1ccccc1Cl)Nc1nnc(NC2CCCc3ccccc32)s1` (centres unmarked) [compound 374, (E)-3-(2-chlorophenyl)-N-[5-(1,2,3,4-tetrahydro-1-naphthalenylamino)-1,3,4-thiadiazol-2-yl]-2-propenamide] came in with an inhibition at 25 µM of 28.1%. On the same count and under the same terms, in the case of `CCCCCCCCCCCNc1nnc(NC(=O)c2ccc(Cl)c(Cl)c2)s1` [compound 375, 3,4-dichloro-N-[5-(undecylamino)-1,3,4-thiadiazol-2-yl]benzamide] it was 27.9%. `O=C(Nc1nnc(NCCC(c2ccccc2)c2ccccc2)s1)c1ccc(C(F)(F)F)cc1` [compound 376, N-{5-[(3,3-diphenylpropyl)amino]-1,3,4-thiadiazol-2-yl}-4-(trifluoromethyl)benzamide] registered an inhibition at 25 µM of 27.9%. In turn, `O=C(Nc1nnc(NCCc2ccccc2)s1)c1c(Cl)cccc1Cl` [compound 377, 2,6-dichloro-N-[5-(phenethylamino)-1,3,4-thiadiazol-2-yl]benzamide] displayed an inhibition at 25 µM of 27.8%. On to `CCCCCCCC/C=C/CCCCCCCC(=O)Nc1nnc(NCCCn2ccnc2)s1` [compound 378, (E)-N-(5-{[3-(1H-imidazol-1-yl)propyl]amino}-1,3,4-thiadiazol-2-yl)-9-octadecenamide], for which 25 µM produced 27.8% inhibition. `O=C(/C=C/c1ccccc1)Nc1nnc(NCCNc2ccccc2)s1` [compound 379, (E)-N-{5-[(2-anilinoethyl)amino]-1,3,4-thiadiazol-2-yl}-3-phenyl-2-propenamide] had an inhibition at 25 µM of 27.5%. `O=C(Nc1nnc(NCC2CCCCC2)s1)c1ccc([N+](=O)[O-])o1` [compound 380, N-{5-[(cyclohexylmethyl)amino]-1,3,4-thiadiazol-2-yl}-5-nitro-2-furamide]: the inhibition at 25 µM came out at 27.5%.

In turn, `CC(C)c1cc(C(C)C)c(C(=O)Nc2nnc(NCCCN3CCCC3=O)s2)c(C(C)C)c1` [compound 381, 2,4,6-triisopropyl-N-(5-{[3-(2-oxo-1-pyrrolidinyl)propyl]amino}-1,3,4-thiadiazol-2-yl)benzamide] registered an inhibition at 25 µM of 27.4%. With `O=C(CCCCCl)Nc1nnc(NCCCCc2ccccc2)s1` [compound 382, 5-chloro-N-{5-[(4-phenylbutyl)amino]-1,3,4-thiadiazol-2-yl}pentanamide], 25 µM produced 27.3% inhibition. Still for that read-out and setting: for `COc1ccccc1C(=O)Nc1nnc(NCCC(c2ccccc2)c2ccccc2)s1` [compound 383, N-{5-[(3,3-diphenylpropyl)amino]-1,3,4-thiadiazol-2-yl}-2-methoxybenzamide] the value was 27.3%. For `O=C(Nc1nnc(NCC2CCCCC2)s1)c1ccc(Cl)c(Cl)c1` [compound 384, 3,4-dichloro-N-{5-[(cyclohexylmethyl)amino]-1,3,4-thiadiazol-2-yl}benzamide], the inhibition at 25 µM worked out at 27.2%. On the same count and under the same terms, in the case of `O=C(Nc1nnc(NCC(c2ccccc2)c2ccccc2)s1)c1ccc(Br)cc1` [compound 385, 4-bromo-N-{5-[(2,2-diphenylethyl)amino]-1,3,4-thiadiazol-2-yl}benzamide] it was 27.2%; in that of `O=C(Nc1nnc(NCCC(c2ccccc2)c2ccccc2)s1)c1ccc(Br)cc1` [compound 386, 4-bromo-N-{5-[(3,3-diphenylpropyl)amino]-1,3,4-thiadiazol-2-yl}benzamide], 26.9%. Same read-out and setting: for `COc1ccccc1C(=O)Nc1nnc(NCCCNC2CCCCC2)s1` [compound 387, N-(5-{[3-(cyclohexylamino)propyl]amino}-1,3,4-thiadiazol-2-yl)-2-methoxybenzamide] the value was 26.8%.

For the compound `CC(C)c1cc(C(C)C)c(C(=O)Nc2nnc(NCCC(=O)OC(C)(C)C)s2)c(C(C)C)c1` [compound 388, tert-butyl 3-({5-[(2,4,6-triisopropylbenzoyl)amino]-1,3,4-thiadiazol-2-yl}amino)propanoate], the inhibition at 25 µM is 26.6%. The same measure, in the same setting: in the case of `CC1(C)C2CC[C@@H](CNc3nnc(NC(=O)c4cc(F)cc(F)c4)s3)C1C2` (stereo partly drawn) [compound 389, N-[5-({[(2R)-6,6-dimethylbicyclo[3.1.1]hept-2-yl]methyl}amino)-1,3,4-thiadiazol-2-yl]-3,5-difluorobenzamide] it was 26.5%; in that of `NS(=O)(=O)c1ccc(CCNc2nnc(NC(=O)CCCCCl)s2)cc1` [compound 390, N-(5-{[4-(aminosulfonyl)phenethyl]amino}-1,3,4-thiadiazol-2-yl)-5-chloropentanamide], 26.3%.

`CCCCCCCC/C=C/CCCCCCCC(=O)Nc1nnc(NCCc2c[nH]cn2)s1` [compound 391, (E)-N-(5-{[2-(1H-imidazol-4-yl)ethyl]amino}-1,3,4-thiadiazol-2-yl)-9-octadecenamide] displayed an inhibition at 25 µM of 26.2%.
